Measurements from ChEMBL document CHEMBL3886475, “Substituted hetero-bicyclic compounds, compositions and medicinal applications thereof” (2016).

Target: Tyrosine-protein kinase BTK (Homo sapiens, UniProt Q06187)
Experiment: Recombinant Human BTK Inhibition Assay: The inhibition assays were performed using the generic tyrosine kinase assay kit from C is Bio (HTRF KinEASE-TK #62TK0PEB). The assay is based on the principle of fluorescence resonance energy transfer (FRET) between the Europium Cryptate labeled anti-phosphotyrosine antibody and streptavidin labeled fluorophore, XL-665. In an uninhibited kinase reaction the biotinylated peptide substrate (Tk-Biotin) gets phosphorylated at an intermediate tyrosine site which is captured by anti-phosphotyrosine antibody which eventually acts as a FRET donor. The streptavidin labeled XL-665 binds strongly to the Tk-Biotin substrate and act as a FRET acceptor. The resultant FRET signal is measured at 665 nm. A ratio of this specific fluorescence (665 nm) to the background fluorescence (620 nm), conferred by the free antibody, is directly proportional to the kinase activity. Inhibition of the kinase activity by a pharmacological intervention such as a Btk inhibitor of the present disclosure will result into decreased FRET signal.

Sequence of Tyrosine-protein kinase BTK (Q06187 whole entry): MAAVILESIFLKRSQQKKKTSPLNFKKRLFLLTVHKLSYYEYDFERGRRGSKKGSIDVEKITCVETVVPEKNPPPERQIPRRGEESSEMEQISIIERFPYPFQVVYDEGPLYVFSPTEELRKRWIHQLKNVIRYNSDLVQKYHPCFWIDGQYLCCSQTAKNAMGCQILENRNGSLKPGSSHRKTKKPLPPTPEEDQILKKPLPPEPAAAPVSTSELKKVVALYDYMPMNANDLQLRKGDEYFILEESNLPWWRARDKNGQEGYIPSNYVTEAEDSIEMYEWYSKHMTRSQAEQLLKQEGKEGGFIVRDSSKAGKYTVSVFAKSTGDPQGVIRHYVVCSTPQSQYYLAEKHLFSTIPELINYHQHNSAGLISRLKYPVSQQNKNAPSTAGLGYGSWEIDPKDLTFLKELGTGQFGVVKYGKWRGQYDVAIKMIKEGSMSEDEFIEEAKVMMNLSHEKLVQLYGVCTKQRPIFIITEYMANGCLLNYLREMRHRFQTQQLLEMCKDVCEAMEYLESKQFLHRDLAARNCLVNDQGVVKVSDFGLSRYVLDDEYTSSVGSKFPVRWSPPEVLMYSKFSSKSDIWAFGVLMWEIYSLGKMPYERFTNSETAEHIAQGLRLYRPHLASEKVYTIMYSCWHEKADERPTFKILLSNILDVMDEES

- IC50: 7 nM
SMILES: CCN1CC(n2cc(-c3cc4c(-c5cccc(N6CCOc7cc(C8CC8)ccc7C6=O)c5CO)ccnc4[nH]3)cn2)C1
